The values below are quoted from earlier work in patent US7026304B2, “2-alkylated-cyclodextrin derivatives: reversal agents for drug-induced neuromuscular block” (Akzo Nobel N.V., priority 2001, dated 2006).

The data set concerns steady-state neuromuscular block induced by the muscle relaxant rocuronium bromide (Roc). The note with it: anaesthetized guinea pigs, as already described in WO 01/12202, cited from earlier work.

For the compound `OC[C@H]1O[C@@H]2O[C@H]3[C@H](O)[C@@H](O)[C@@H](O[C@H]4[C@H](O)[C@@H](O)[C@@H](O[C@H]5[C@H](O)[C@@H](O)[C@@H](O[C@H]6[C@H](O)[C@@H](O)[C@@H](O[C@H]7[C@H](O)[C@@H](O)[C@@H](O[C@H]8[C@H](O)[C@@H](O)[C@@H](O[C@H]9[C@H](O)[C@@H](O)[C@@H](O[C@H]1[C@H](O)[C@H]2O)O[C@@H]9CO)O[C@@H]8CO)O[C@@H]7CO)O[C@@H]6CO)O[C@@H]5CO)O[C@@H]4CO)O[C@@H]3CO` [γ-cyclodextrin], the “ED50, dose producing 50% reversal of steady-state neuromuscular block” value (parent cyclodextrins for comparison) is 4 µmol/kg. In addition, for the setting “parent cyclodextrins”, the “% max reversal” value is 104% and the “dose at maximum reversal” value is given as “(47) μmol · kg^−1”.
